A melting point compilation (Tetko et al.; mined from patent text by program, amines drawn as free bases though some values may be those of a salt)

melting point [°C] | SMILES
95 to 98 | C=Cc1cn(-c2c(Cl)cc(C(F)(F)F)cc2Cl)nc1C(F)(F)F
108 to 110 | Cc1noc(C)c1Cn1cc(NC(=O)[C@@H](C)c2ccccc2)cn1
124 to 126 | CCOC(C)n1c(C(=O)C(F)(F)F)nc(-c2ccc(OC)cc2)c1-c1ccc(OC)cc1 (configuration not stated)
155 to 156 | CCCCNc1c(C#N)cnc2cc(F)c(OC)cc12
> 245 | COc1cccc(OC)c1Cc1c(O)ncnc1O
207 | O=C(Nc1ccccc1S(=O)(=O)c1ccccc1)N[C@@H](Cc1ccc(NC(=O)c2ccc(Cl)nc2Cl)cc1)C(=O)O
164 to 165 | Ic1ccc(-c2cc[nH]c2)cc1
> 250 | Cc1nc(N)c2nc(CO)n(NCc3ccccc3)c2c1C
61 to 65 | CCN(CC)c1ccc(/C=C/C(=O)CC(=O)/C=C/c2ccc3cc[nH]c3c2)c(OC)c1
126 to 128 | N#Cc1ccc2ccc(Br)cc2c1
138 to 142 | Cc1ccc(C(=O)N(C)C)cc1-c1nc(NCCN(C)C)nc2c1CNC(=O)N2c1c(F)cccc1F
166 to 168 | COc1ccc(Cl)cc1NC(=O)CN1CCN(CC(=O)N2CC=C(c3cccc(C(F)(F)F)c3)n3ncc(C#N)c32)CC1
185 to 188 | O=C(Nc1ccc(-n2nc(C(F)(F)F)cc2C(F)(F)F)cc1)c1ccc([N+](=O)[O-])cc1
114 to 115 | COC(=O)C(Cc1ccc(OCCc2nc(-c3ccccc3)oc2C)cc1)C(=O)N(C)C (configuration not stated)
172 | COC1=CC(=O)C2=C(CC=CC2)C1=O
190 to 191 | Fc1cccc(CSc2nnc(-c3ccnc4[nH]ccc34)o2)c1
74 | O=C(c1ccccc1)c1ccc(OCC(O)COCCCCCCCCOCC(O)COc2ccc(C(=O)c3ccccc3)c(O)c2)cc1O (configuration not stated)
142 to 143 | Cc1cc(C(=O)c2[nH]c3cc(Cl)ccc3c2N)ccc1Cl

melting point [°C] | SMILES
48 to 49 | Cc1cc(C)c2c(c1C)OCC2c1ccc(C(C)C)cc1 (configuration not stated)
200 | CC1(C)CCC(C)(C)c2cc3oc(-c4ccc(CO)cc4)nc3cc21
278 to 280 | O=C(NC(Cc1ccc(OCc2ccccc2)cc1)C(=O)O)c1ccc2nc(-c3ccc(Cl)cc3)cn2c1 (configuration not stated)
70 | CC(=O)C(=CC(=O)O)c1ccccc1
163 to 166 | c1ccc2c(c1)Cc1cc(C3(Cn4ccnc4)OCCO3)ccc1-2
155 to 157 | O=C(Nc1ccc(C(F)(F)F)cc1)N[C@@H](Cc1ccccc1)C(=O)OCc1ccccc1
201 | CC[C@@H](O)CC(=O)N[C@H]1CC[C@H](CCN2CCC(c3cccc4c3CCO4)CC2)CC1
268 to 269 | Cc1c(C#N)sc(N=Nc2c(NCCO)nc(NCCO)c(C#N)c2C)c1C#N
111 to 114 | COCOCC1(C)Cc2c(C)c(N3CCN(c4ccc(OC)cc4)CC3)c(C)c(C)c2O1 (configuration not stated)
146 | CC(=O)OCC1OC(n2cnc3c(-n4cnc(-c5ccccc5)c4-c4ccccc4)nc(Cl)nc32)C(OC(C)=O)C1OC(C)=O (configuration not stated)
172 to 173 | CN(c1cccc2cc(C3=NCC(C)(CN4CCC5(CC4)OCCO5)S3)[nH]c12)S(=O)(=O)c1cccs1 (configuration not stated)
124 to 126 | Cc1ccc(-c2ccc(S(C)(=O)=O)cc2)n1CC(C)(C)S
213 to 215 | N#Cc1nc(NCc2cnn(-c3c(Cl)cc(C(F)(F)F)cc3Cl)n2)[nH]c1C#N
120 to 121 | CCn1ncc2c(Cl)c3cc(SC)ccc3nc21
247 to 249 | Cc1[nH]c(=O)c(C#N)cc1-c1ccc(OCCCC(=O)O)cc1
60 to 69 | CC(=O)OCC1CC(=O)NN=C1c1ccc(N2CCOCC2)c(C#N)c1 (configuration not stated)
63 | Cc1nnc(SCc2nc(NCCCOc3cccc(CN4CCCCC4)c3)n(C)n2)s1
192 to 195 | O=C1C(=CO)c2ccccc2N1c1ccccc1

SMILES | melting point [°C]
CCSCCCNc1c(S(=O)(=O)C(F)(F)F)c(C#N)nn1-c1c(Cl)cc(C(F)(F)F)cc1Cl | 80
